Source: patent US5159081A, “Intermediates of peripherally selective N-carbonyl-3,4,4-trisubstituted piperidine opioid antagonists” (Eli Lilly and Company, priority 1991, dated 1992)
Structures can show the parent of a compound that is named as a salt. Where two headings read alike, the source gives them in different places.

Experiments:
mu receptor = molecular target: T1, mu receptor (Rattus norvegicus, UniProt P33535); assay: Naloxone [3H] opioid receptor binding assay (mu receptor); set-up: species or system rat (male Sprague Dawley)
T1 construct: The brain tissue, rat whole brain minus cerebellum for mu was homogenized; from tissue; host or cells: brain minus cerebellum of male Sprague Dawley rats, homogenate fraction
T1 sequence (P33535 whole entry): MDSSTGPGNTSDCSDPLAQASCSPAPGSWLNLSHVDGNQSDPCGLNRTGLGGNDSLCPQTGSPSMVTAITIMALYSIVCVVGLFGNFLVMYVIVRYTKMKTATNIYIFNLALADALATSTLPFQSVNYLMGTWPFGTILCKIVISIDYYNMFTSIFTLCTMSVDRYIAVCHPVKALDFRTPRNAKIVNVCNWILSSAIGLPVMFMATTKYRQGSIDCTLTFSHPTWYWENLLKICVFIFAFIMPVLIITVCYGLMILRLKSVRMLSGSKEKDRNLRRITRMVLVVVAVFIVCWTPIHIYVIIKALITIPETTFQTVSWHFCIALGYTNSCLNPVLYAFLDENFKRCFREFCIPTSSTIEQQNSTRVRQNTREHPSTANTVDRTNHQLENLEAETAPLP

[1] = system: peripheral opioid receptors; assay: mouse diarrhea test: precipitated diarrhea in morphine-maintained mice (peripheral opioid activity); format: in vivo
[2] = molecular target: peripheral opioid receptors (Mus musculus, UniProt P42866); assay: as above; format: in vivo; conditions: mouse diarrhea test, morphine-maintained mice, subcutaneous or oral, 30 min observation
Chain of peripheral opioid receptors (Mus musculus, UniProt P42866) (P42866 whole entry): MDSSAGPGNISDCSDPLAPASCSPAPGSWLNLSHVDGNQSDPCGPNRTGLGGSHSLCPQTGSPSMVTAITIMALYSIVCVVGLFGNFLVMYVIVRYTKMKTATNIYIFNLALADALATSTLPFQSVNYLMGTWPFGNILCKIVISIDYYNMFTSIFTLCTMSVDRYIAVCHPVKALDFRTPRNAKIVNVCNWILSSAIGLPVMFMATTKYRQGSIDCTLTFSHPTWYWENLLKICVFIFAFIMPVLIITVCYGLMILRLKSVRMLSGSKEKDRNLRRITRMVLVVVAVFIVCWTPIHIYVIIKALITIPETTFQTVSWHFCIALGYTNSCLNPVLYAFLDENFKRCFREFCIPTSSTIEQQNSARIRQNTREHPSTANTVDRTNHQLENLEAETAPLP

opioid receptor = molecular target: T2, opioid receptor (Mus musculus, UniProt P42866); assay: in vivo; set-up: species or system CF-1 male mice; conditions: sc
T2 construct: Five CF-1 male mice (Charles River, Portage, MI); from tissue; host or cells: living CF-1 male mice (whole animal, endogenous receptor)
T2 sequence (P42866 whole entry): as above

[3] = 20 min, pH 7.4, read-out: % displacement at 10 nM
[4] = 20 min, pH 7.4, read-out: % displacement at 100 nM
[5] = […], rat whole brain minus cerebellum, [3H]naloxone 0.5 nM, pH 7.4, 37° C., 20 min, read-out: Ki
[6] = AD50 mouse writhing / ED50 mouse diarrhea, higher = greater relative peripheral antagonism
[7] = mouse writhing test, […], s.c. 20 min before acetic acid, read-out: AD50 (the source's name)
[8] = 20 min, pH 7.4, 10 nM test compound, [3H]naloxone 0.5 nM, mu receptor, read-out: % displacement at 10 nM
[9] = 20 min, pH 7.4, 100 nM test compound, [3H]naloxone 0.5 nM, mu receptor, read-out: % displacement at 100 nM

Row | Structure (SMILES) | inhibition at 0.01 µM (mu receptor; [3]) [%] | inhibition at 0.1 µM (mu receptor; [4]) [%] | Ki (mu receptor; [5]) [nM] | Ratio (ratio of AD50 to ED50) [1, 6] | ED50 [2] [mg/kg] | ED50 (opioid receptor; [7]) [mg/kg] | Ratio (ratio of AD50 to ED50) ([1]; mouse, in vivo) | inhibition at 0.01 µM (mu receptor; [8]) [%] | inhibition at 0.1 µM (mu receptor; [9]) [%] | ED50 ([2]; 0.5 h, read-out: ED50) [mg/kg] | Ki (mu receptor) [nM] | ED50 (opioid receptor; mouse, read-out: AD50) [mg/kg]
1 | CNC(=O)CC(=O)N(CCN1CC[C@@](C)(c2cccc(O)c2)[C@@H](C)C1)C1CCCCC1 (relative stereo) [Example 36, N-Methyl-3-oxo-3-((2-(trans-4-(3-hydroxyphenyl)-3,4-dimethyl-1-piperidinyl)ethyl)cyclohexylamino)propanamidemonohydrochloride monohydrate] | 85 | 99 | 3.01 | 8 | 0.39 | 2.9 |  |  |  |  |  | 
2 | C[C@H]1CN(CC(Cc2ccccc2)NC(=O)CCCC(=O)O)CC[C@@]1(C)c1cccc(O)c1 (relative stereo) [Example 15, Trans-5-((2-(4-(3-hydroxyphenyl)-3,4-dimethyl-1-piperidinyl)-1-(D-(phenylmethyl)ethyl)amino))-5-oxopentanoic acid monohydrate] | 80 | 99 | 2.96 |  | 0.028 | 1.39 | 50 |  |  |  |  | 
3 | C[C@H]1CN(C[C@H](CC2CCCCC2)NC(=O)CCCC(=O)OCC(N)=O)CC[C@@]1(C)c1cccc(O)c1 [Example 61] | 88 | 97 | 2.86 | 169 | 0.13 | 22 |  |  |  |  |  | 
4 | CCNC(=O)COC(=O)CCCC(=O)N[C@@H](CC1CCCCC1)CN1CC[C@](C)(c2cccc(O)c2)[C@H](C)C1 [Example 65] | 67 | 93 |  | > 2000 | 0.02 | > 40 |  |  |  |  |  | 
5 | CNC(=O)COC(=O)CCCC(=O)N[C@@H](CC1CCCCC1)CN1CC[C@](C)(c2cccc(O)c2)[C@H](C)C1 [Example 62] | 70 | 96 |  | > 1333 | 0.03 | > 40 |  |  |  |  |  | 
6 | CC(C)COC(=O)CCCC(=O)N[C@@H](CC1CCCCC1)CN1CC[C@@](C)(c2cccc(O)c2)[C@@H](C)C1 [Example 56] |  |  |  | 20000 |  | > 40 |  | 61 | 92 | 0.002 |  | 
7 | C[C@H]1CN(CCC(CC2CCCCC2)NC(=O)CCC(=O)O)CC[C@@]1(C)c1cccc(O)c1 (stereo partly drawn) [Example 1, 4-[(3-(4-(3-hydroxyphenyl)-3,4-dimethyl-1-piperidinyl)-1-(cyclohexylmethyl)propyl)amino]-4-oxobutanoic acid monohydrate] | 72 | 94 |  |  | 0.01 |  | > 4000 |  |  |  | 6.88 | > 40
8 | CCNC(=O)COC(=O)CCCC(=O)N[C@@H](CC1CCCCC1)CN1CC[C@@](C)(c2cccc(O)c2)[C@@H](C)C1 [Example 66] | 81 | 94 | 1.84 | 2440 | 0.005 | 12.2 |  |  |  |  |  | 
9 | C[C@@H]1CN(C[C@@H](CC2CCCCC2)NC(=O)CCCC(=O)O)CC[C@]1(C)c1cccc(O)c1 [Example 48D] | 30 | 78 |  | > 800 | 0.05 | > 40 |  |  |  |  |  | 
10 | CCCOC(=O)CCCC(=O)N[C@@H](CC1CCCCC1)CN1CC[C@@](C)(c2cccc(O)c2)[C@@H](C)C1 [Example 54] | 81 | 96 | 5.07 | 18000 | 0.0015 | 27 |  |  |  |  |  | 
11 | CC(C)COC(=O)CCCC(=O)N[C@@H](CC1CCCCC1)CN1CC[C@](C)(c2cccc(O)c2)[C@H](C)C1 [Example 55] |  |  |  | > 800 |  | > 40 |  | 40 | 86 | 0.05 |  | 
12 | C[C@H]1CN(CCN(C(=O)CC(=O)O)C2CCCCC2)CC[C@@]1(C)c1cccc(O)c1 (relative stereo) [Example 21, 3-(cyclohexyl-(2-(trans-4-(3-hydroxyphenyl)-3,4-dimethyl-1-piperidinyl)ethyl)amino)-3-oxopropanoic acid monohydrate] |  |  |  | 71 |  | 17.1 |  | 53 | 80 | 0.073 |  | 
